# In US11207271B2, “Mazindol IR/SR multilayer tablet and its use for the treatment of attention deficit/hyperactivity disorder (ADHD)” (NLS-1 Pharma AG, priority 2016, dated 2021):
# Experiments:
# [1] = animal toxicology studies; cited from earlier work
# [2] = clinical pharmacokinetic studies; cited from earlier work
# [3] = Pharmacokinetics of immediate-release mazindol after oral administration; type: in vivo, human; conditions: immediate release formulation; from half-life
# Protocol: In U.S. Pat. No. 8,293,779, it is disclosed that, after single or repeated oral administration, mazindol is absorbed with a time to maximum concentrations (Tmax) of 2-4 hours.
# Such immediate release compositions thus require twice daily administration, which limits compliance in the special case of children of school age, as the second administration is often requested to be done at midday, i.e. during school time. Even given the fact that the immediate release tablet undergoes complete in vitro dissolution within 1 hour, the time to maximum concentrations (Tmax) occurs at 3-4 hours after drug administration in healthy volunteers (Kim 2009). Rapid initial absorption will allow the earlier achievement of adequate systemic exposure to achieve desired efficacy (e.g., administer early and have onset of efficacy 1-2 hours later, when patient is at school or work).
# [4] = cited from earlier work
# [5] = In vitro TIM gastrointestinal system, fasted vs fed; type: in vitro ADME, human; conditions: formulated according to the invention
# From the text: As discussed, this is particularly beneficial for ADHD patients, for this initial amount of mazindol provided increases patients' mental alertness and acuity at the start of their day (e.g., driving to work, starting school).
# [6] = cited from earlier work; remark: listed apart in the source
smiles,measurement,setting,value
"OC1(c2ccc(Cl)cc2)c2ccccc2C2=NCCN21 (centres unmarked) [mazindol, 5-(4-chlorophenyl)-2,5-dihydro-3H-imadazo[2,1-a]isoindol-5-ol]",carcinogenic effect,[1],no carcinogenic effect
same,mutagenic effect,[1],no mutagenic effect
same,toxic potential,[1],very low
same,toxicology effect in reproduction,[1],no toxicology effect in reproduction
same,absorption in the colon,[2],not likely to be absorbed in the colon
same,time to reach steady-state concentrations,[3],30 to 55 h
same,hydrolytic stability,"[4]; moderate temperatures, water / neutral and alkaline aqueous solutions, human plasma",undergoes hydrolysis at moderate temperatures with minimal amount of water
same,solubility as function of pH,"[4]; most soluble at stomach pH, least in the colon",decreases with increasing pH
same,Tmax in the fed state compared to the fasted state,[5],"delayed, compared to the fasted state, by one hour or more"
same,dose dependence of pharmacokinetics,"[6]; doses between 1 mg/day and 4 mg/day, immediate-release formulations",linear (independent of the dose)
same,time to maximum concentrations (Tmax),"[6]; single or repeated oral administration, U.S. Pat. No. 8,293,779",2 to 4 h
